“And” between values parts separate entries of the source, which are not always exact repeats. Equal values may be shown once. The source made the active and inactive calls.
What was measured:
[1] = target: NAD-dependent protein deacylase sirtuin-5, mitochondrial (Homo sapiens, UniProt Q9NXA8); test: SIRT5 desuccinylase inhibitors, dose response, biochemical, fluorescence imaging, cherry-pick, set 5 (AID 720591);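 note: desuccinylation of succinyl peptide AMC substrate read as fluorescence after trypsin release; potency of inhibitors that lower fluorescence and may act on trypsin instead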
Sequence of NAD-dependent protein deacylase sirtuin-5, mitochondrial (Q9NXA8 whole entry): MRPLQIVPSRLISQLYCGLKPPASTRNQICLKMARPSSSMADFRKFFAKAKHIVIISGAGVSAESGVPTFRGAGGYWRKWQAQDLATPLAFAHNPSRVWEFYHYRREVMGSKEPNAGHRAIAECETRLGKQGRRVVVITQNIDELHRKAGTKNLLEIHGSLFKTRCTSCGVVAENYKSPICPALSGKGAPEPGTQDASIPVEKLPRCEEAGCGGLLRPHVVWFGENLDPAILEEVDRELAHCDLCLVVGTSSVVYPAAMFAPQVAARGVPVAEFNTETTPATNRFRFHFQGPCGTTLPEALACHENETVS

Caspase-6 = Caspase-6 (Homo sapiens, UniProt P55212); test: human caspase-6 inhibitors, dose response, biochemical, VEID-R110 fluorescence, cherry-pick (AID 720632)
Sequence of Caspase-6 (P55212 24-179 limits assumed): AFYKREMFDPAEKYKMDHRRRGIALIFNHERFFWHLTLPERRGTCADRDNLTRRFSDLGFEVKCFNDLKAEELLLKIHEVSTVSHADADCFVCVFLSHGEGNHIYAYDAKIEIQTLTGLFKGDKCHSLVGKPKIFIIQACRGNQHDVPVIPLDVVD
Sequence of Caspase-6 (P55212 194-293 limits assumed): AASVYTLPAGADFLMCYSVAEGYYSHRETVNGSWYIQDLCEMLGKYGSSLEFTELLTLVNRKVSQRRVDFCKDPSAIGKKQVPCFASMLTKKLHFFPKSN

Vasopressin V1b receptor = Vasopressin V1b receptor (Homo sapiens, UniProt P47901); test: Late-stage results from the probe development effort to identify antagonists of arginine vasopressin receptor 1a (AVPR1a): fluorescence-based cell-based dose response AVPR1b inhibition counterscreen assay.; type: functional
Sequence of Vasopressin V1b receptor (P47901 whole entry): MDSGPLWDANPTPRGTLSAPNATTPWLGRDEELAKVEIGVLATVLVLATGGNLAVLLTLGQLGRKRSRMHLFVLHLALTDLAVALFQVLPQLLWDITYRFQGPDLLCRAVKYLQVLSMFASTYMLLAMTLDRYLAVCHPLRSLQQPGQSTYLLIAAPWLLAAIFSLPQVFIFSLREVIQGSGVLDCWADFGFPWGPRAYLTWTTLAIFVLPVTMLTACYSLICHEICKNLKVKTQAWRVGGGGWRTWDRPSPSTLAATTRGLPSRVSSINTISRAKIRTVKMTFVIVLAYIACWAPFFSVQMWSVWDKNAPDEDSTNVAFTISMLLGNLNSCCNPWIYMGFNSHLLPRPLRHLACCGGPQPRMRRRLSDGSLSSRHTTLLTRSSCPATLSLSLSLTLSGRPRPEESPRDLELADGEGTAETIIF

[2] = Late-stage results from the probe development effort to identify antagonists of arginine vasopressin receptor 1a (AVPR1a): fluorescence-based cell-based dose response OXTR inhibition counterscreen assay.; type: functional
Vasopressin V2 receptor = Vasopressin V2 receptor (Homo sapiens, UniProt P30518); test: Late-stage results from the probe development effort to identify antagonists of arginine vasopressin receptor 1a (AVPR1a): fluorescence-based cell-based dose response AVPR2 inhibition counterscreen assay.; type: functional
Sequence of Vasopressin V2 receptor (P30518 whole entry): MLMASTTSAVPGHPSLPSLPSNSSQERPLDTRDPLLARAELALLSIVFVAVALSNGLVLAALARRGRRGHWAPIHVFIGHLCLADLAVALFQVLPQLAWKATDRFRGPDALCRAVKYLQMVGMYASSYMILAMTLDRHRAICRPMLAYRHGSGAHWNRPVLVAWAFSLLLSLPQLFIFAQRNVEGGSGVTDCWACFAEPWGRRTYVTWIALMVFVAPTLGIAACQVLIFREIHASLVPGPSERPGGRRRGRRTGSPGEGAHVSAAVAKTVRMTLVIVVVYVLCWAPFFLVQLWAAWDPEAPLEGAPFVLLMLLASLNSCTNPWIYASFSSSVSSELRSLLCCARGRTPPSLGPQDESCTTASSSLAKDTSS

[3] = Late-stage results from the probe development effort to identify antagonists of arginine vasopressin receptor 1a (AVPR1a): fluorescence-based cell-based dose response AVPR1a inhibition assay.; type: functional
[4] = cytotoxicity in HEK-293T cells, dose response, cytotoxicity control for TCR NF-kB inhibitor project, luminescence, T-cell screen hits (AID 489026); type: functional, cell-based;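 note: cells exposed to compound about 14 hours before the viability readout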
[5] = HEK293 cell cytotoxicity, dose response, cytotoxicity control, dry powder samples (AID 720567); type: functional, cell-based
[6] = HEK293T cell cytotoxicity, dose response, cytotoxicity control, CellTiter-Glo luminescence, dry powder, set 6 (AID 651949); type: functional, cell-based; conditions: HEK293
[7] = IOSE-T80 ovarian epithelial cell cytotoxicity, dose response, cytotoxicity control for PAX8 inhibitor project, plate reader, dry powder samples (AID 743045); type: functional, cell-based
[8] = cytotoxicity in OVCAR8 ovarian cancer cells, dose response, PAX8 project, cell-based, plate reader, dry powder samples (AID 743197); type: functional; conditions: OVCAR-8
[9] = NIH:OVCAR-3 ovarian cancer cell cytotoxicity, dose response, PAX8 inhibitor project, plate reader, dry powder samples (AID 743044); type: functional, cell-based
Paired box protein Pax-8 = Paired box protein Pax-8 (Homo sapiens, UniProt Q06710); test: inhibitors of PAX8-driven TPO luciferase reporter, dose response, RMG-I cells, cherry-pick (AID 687027); type: functional, cell-based;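 note: luciferase reporter driven by Pax8 target thyroperoxidase promoter measured by SteadyGlo luminescence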
Sequence of Paired box protein Pax-8 (Q06710 whole entry): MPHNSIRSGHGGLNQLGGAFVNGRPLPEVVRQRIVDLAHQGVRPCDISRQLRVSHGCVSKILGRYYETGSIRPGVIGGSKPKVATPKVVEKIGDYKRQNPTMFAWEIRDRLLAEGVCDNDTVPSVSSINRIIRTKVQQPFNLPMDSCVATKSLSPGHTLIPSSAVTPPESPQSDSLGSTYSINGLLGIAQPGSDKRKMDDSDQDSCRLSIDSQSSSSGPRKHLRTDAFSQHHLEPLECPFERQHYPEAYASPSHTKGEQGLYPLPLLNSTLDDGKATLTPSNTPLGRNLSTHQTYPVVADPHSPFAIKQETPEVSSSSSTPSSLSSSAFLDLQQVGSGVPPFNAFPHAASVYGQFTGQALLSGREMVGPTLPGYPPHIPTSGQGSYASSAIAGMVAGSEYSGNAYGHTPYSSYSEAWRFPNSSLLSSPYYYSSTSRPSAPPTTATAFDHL

[10] = IGROV1 ovarian cancer cell cytotoxicity, dose response, PAX8 inhibitor project, plate reader, dry powder samples (AID 743043); type: functional, cell-based; conditions: IGROV-1
HEK293 [11] = test: NOD2 signaling inhibitors in MDP-stimulated cells, cell-based, uHTS, luminescence (AID 2001); type: functional; conditions: Homo sapiens
HEK293 [12] = test: cells; type: functional, cell-based; conditions: Homo sapiens
HEK293 [13] = test: cells; type: functional, cell-based; conditions: Homo sapiens; remark: listed apart in the source
HEK293 [14] = test: cells; type: functional, cell-based; conditions: Homo sapiens; remark: listed apart in the source
[15] = CEM21 cell cytotoxicity, dose response, cytotoxicity control, plate reader, dry powder (AID 687026); type: functional, cell-based
[16] = inhibitors of clade B AD8 Env fusion, dose response, cell-based, cherry-pick (AID 652062); type: functional;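 note: luciferase signal from cell-cell fusion driven by HIV-1 clade B AD8 Env; potency is for inhibitors of fusion seen as a drop in luminescence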
Estrogen receptor = target: T1, Estrogen receptor (Homo sapiens, UniProt P03372);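 note: potency for inhibiting coactivator peptide recruitment to the receptor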
T1 sequence (P03372 whole entry): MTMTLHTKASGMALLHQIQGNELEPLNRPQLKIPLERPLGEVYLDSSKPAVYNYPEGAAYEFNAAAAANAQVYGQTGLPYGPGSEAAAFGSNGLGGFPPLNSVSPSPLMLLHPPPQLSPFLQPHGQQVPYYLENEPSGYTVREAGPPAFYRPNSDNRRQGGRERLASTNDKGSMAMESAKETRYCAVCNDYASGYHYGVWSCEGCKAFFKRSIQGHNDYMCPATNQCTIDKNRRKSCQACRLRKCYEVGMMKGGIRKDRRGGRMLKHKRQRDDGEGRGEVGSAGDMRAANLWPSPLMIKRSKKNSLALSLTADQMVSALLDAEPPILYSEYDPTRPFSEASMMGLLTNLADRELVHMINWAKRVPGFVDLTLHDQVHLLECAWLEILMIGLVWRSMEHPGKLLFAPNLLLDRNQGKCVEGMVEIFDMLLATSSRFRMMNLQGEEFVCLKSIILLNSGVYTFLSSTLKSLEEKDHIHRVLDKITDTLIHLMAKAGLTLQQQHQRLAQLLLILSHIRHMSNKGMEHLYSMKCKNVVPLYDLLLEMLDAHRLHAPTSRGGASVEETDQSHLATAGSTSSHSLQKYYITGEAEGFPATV

[17] = HIV Env cell-cell fusion inhibitors, dose response, HIV entry, plate reader, dry powder (AID 687023); type: functional, cell-based
[18] = off-target signal loss in HeLa-CEM21 co-culture – HeLa F-luc CTL cells, cherry-picked, counter-screen for HIV-1 Env fusion inhibitor project, dose response (AID 652040); type: functional, cell-based;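 note: potency for signal decrease marking cytotoxic or nonspecific inhibition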
HEK293 [19] = test: NOD1 signaling inhibitors, primary screen, cell-based, luminescence, uHTS (AID 1578); type: functional; conditions: Homo sapiens
[20] = target: Nucleotide-binding oligomerization domain-containing protein 2 (Homo sapiens, UniProt Q9HC29); test: NOD2 signaling inhibitors, cell-based, luminescence, uHTS, HEK293 (AID 1566); type: functional
Sequence of Nucleotide-binding oligomerization domain-containing protein 2 (Q9HC29 whole entry, the tested form may be a part): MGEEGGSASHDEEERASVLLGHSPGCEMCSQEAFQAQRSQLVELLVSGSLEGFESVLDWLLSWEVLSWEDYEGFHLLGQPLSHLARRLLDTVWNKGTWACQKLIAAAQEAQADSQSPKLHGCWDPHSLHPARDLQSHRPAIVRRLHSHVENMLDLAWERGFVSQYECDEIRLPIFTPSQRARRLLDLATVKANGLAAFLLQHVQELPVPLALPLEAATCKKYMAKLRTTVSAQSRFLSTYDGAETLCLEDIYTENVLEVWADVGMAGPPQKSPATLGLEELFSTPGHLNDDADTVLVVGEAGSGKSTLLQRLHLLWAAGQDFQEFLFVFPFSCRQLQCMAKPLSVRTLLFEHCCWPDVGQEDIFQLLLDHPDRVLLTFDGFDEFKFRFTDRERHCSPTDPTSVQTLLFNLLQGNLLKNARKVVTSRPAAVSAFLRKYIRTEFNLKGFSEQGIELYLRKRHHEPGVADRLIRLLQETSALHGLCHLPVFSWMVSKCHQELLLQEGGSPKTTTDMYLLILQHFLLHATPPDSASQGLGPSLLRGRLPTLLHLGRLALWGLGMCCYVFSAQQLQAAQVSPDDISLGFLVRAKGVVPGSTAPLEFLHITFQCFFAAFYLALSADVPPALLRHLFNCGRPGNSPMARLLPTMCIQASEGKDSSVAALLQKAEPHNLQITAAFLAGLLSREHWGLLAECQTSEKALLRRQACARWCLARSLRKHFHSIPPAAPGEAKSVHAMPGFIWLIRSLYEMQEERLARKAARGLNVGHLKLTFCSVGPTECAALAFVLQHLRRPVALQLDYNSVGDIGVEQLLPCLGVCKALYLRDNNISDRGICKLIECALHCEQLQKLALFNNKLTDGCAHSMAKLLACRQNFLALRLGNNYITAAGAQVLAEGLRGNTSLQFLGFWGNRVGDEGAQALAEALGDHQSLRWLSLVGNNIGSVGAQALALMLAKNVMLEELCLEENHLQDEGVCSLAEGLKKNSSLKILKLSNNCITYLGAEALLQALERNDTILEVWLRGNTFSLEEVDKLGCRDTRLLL

[21] = ZM109 Env clade C HIV-1 fusion inhibitors, dose response, HeLa effector, CEM target cells, luciferase, cherry-pick (AID 652058); type: functional, cell-based
[22] = inhibitors of HIV Env-driven cell fusion, dose response, cherry-pick (AID 652057); type: functional, cell-based

COc1ccc(-n2c(/C=C/c3ccc4c(c3)OCO4)nc3ccccc3c2=O)cc1
AC50 [1]: > 30 µM (inactive)

O=C(OC1CCOC1=O)c1ccc(Cl)c(S(=O)(=O)N2CCOCC2)c1 (configuration not stated)
AC50 (Caspase-6): 13.5 µM (active)

Cc1ccc(N2CCC(C(=O)N(CC3CC3)c3ccc(Cl)cc3)CC2)nc1
IC50 (Vasopressin V1b receptor): 20.8 µM (inactive)
IC50 [2]: 12.4 µM (inactive)
IC50 (Vasopressin V2 receptor): 12.3 µM (inactive)
IC50 [3]: 0.0201 µM (active)

CCOC(=O)COc1cccc2c(=O)n(CC(=O)NCc3ccccc3)ccc12
IC50 [4]: > 80 µM (inactive)
AC50 [5]: > 30 µM (inactive)

CS(=O)(=O)c1cccc(-c2nnc(SCc3ccccc3)o2)c1
AC50 [6]: > 52 µM (inactive)

Cc1ccc(S(=O)(=O)Nc2ccc3c(c2)C(=O)N([C@H](C)CO)C[C@H](C)[C@@H](CN(C)Cc2ccc(C(F)(F)F)cc2)OCCCC[C@H](C)O3)cc1
AC50 [7]: 18.1 µM (active)
AC50 [8]: 16.6 µM (active)
AC50 [9]: 10.3 µM (active)
AC50 (Paired box protein Pax-8): 4.62 µM (active)
AC50 [10]: 15 µM (active)

O=C(CCCn1c(=S)[nH]c2cc3c(cc2c1=O)OCO3)N1CCN(c2ccc(Cl)cc2)CC1
IC50 (HEK293 [11]): 6.5 µM (active)
IC50 (HEK293 [12]): 8.75 µM (active)
IC50 (HEK293 [13]): 16.4 µM (active)
IC50 (HEK293 [14]): > 20 µM (inactive)
AC50 [15]: > 70 µM (inactive)
AC50 [16]: 7.01 µM (active)
IC50 (Estrogen receptor): 12.6 µM (active)
AC50 [17]: 5.71 µM (active) and 5.84 µM (active)
AC50 [18]: 44.3 µM (active)
EC50 (HEK293 [19]): 7.73 µM (active)
EC50 [20]: 3.83 µM (active)
AC50 [21]: 5.45 µM (active)
AC50 [22]: 2.75 µM (active)
